Source: patent publication EP3782997A1, “FUSED PYRIMIDINE COMPOUNDS AND PHARMACEUTICAL COMPOSITIONS THEREOF FOR THE TREATMENT OF FIBROTIC DISEASES” (Galapagos N.V., priority 2019, dated 2021)

Molecular target: hENPP2 (Homo sapiens, UniProt Q13822)
Experiment: Human ENPP2 (hENPP2) biochemical assay using LPC as substrate
Conditions: 150 µM LPC (palmitoyl 16:0), 37°C for 30 min
How it was run: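 IC50 came from compound series (top 50 µM, 1/3 steps) incubated 30 min at 37°C with 1 or 3 µg/mL final enzyme and palmitoyl LPC added at 150 µM, pH 8.5 Tris buffer with Ca2+. Choline output measured as quinoneimine dye at 555 nm via coupled oxidase/HRP/TOOS detection.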

SMILES	IC50
C[C@@H]1C[C@@H](N2Cc3cnc(Nc4ccc(F)cc4)nc3C2)CCN1C(=O)c1ccnc(NS(C)(=O)=O)c1 [compound 192, N-[4-[(2R,4S)-4-[2-(4-fluoroanilino)-5,7-dihydropyrrolo[3,4-d]pyrimidin-6-yl]-2-methyl-piperidine-1-carbonyl]-2-pyridyl]methanesulfonamide]	> 1000 nM
C[C@@H]1C[C@H](N2Cc3cnc(Nc4ccc(S(F)(F)(F)(F)F)cc4)nc3C2)CCN1C(=O)c1cc2nn[nH]c2cc1F [compound 195, (6-fluoro-1H-benzotriazol-5-yl)-[(2R,4R)-2-methyl-4-[2-[4-(pentafluoro-λ^6-sulfanyl)anilino]-5,7-dihydropyrrolo[3,4-d]pyrimidin-6-yl]-1-piperidyl]methanone]	0.01 to 100 nM
COc1cc(F)cc(Nc2ncc3c(n2)CN([C@@H]2CCN(C(=O)c4cc5nn[nH]c5cc4F)[C@H](C)C2)C3)c1 [compound 197, (6-fluoro-1H-benzotriazol-5-yl)-[(2R,4R)-4-[2-(3-fluoro-5-methoxy-anilino)-5,7-dihydropyrrolo[3,4-d]pyrimidin-6-yl]-2-methyl-1-piperidyl] methanone]	0.01 to 100 nM
Cc1cc(C)cc(Nc2ncc3c(n2)CN([C@@H]2CCN(C(=O)c4ccnc(N)c4)[C@H](C)C2)C3)c1 [compound 198, (2-amino-4-pyridyl)-[(2R,4R)-4-[2-(3,5-dimethylanilino)-5,7-dihydropyrrolo[3,4-d]pyrimidin-6-yl]-2-methyl-1-piperidyl]methanone]	> 1000 nM
Cc1cc(C)cc(Nc2ncc3c(n2)CN(C2CCN(C(=O)c4ccnc(NS(C)(=O)=O)c4)CC2)C3)c1 [compound 202, N-[4-[4-[2-(3,5-dimethylanilino)-5,7-dihydropyrrolo[3,4-d]pyrimidin-6-yl]piperidine-1-carbonyl]-2-pyridyl]methanesulfonamide]	0.01 to 100 nM
COc1cc(F)cc(Nc2ncc3c(n2)CN([C@@H]2CCN(C(=O)c4ccnc(NS(C)(=O)=O)c4)[C@H](C)C2)C3)c1 [compound 204, N-[4-[(2R,4R)-4-[2-(3-fluoro-5-methoxy-anilino)-5,7-dihydropyrrolo[3,4-d]pyrimidin-6-yl] -2-methyl-piperidine-1-carbonyl]-2-pyridyl]methanesulfonamide]	100 to 500 nM
Cc1cc(C)cc(Nc2ncc3c(n2)CN([C@@H]2CCN(C(=O)c4cccc(NS(C)(=O)=O)c4)[C@H](C)C2)C3)c1 [compound 206, N-[3-[(2R,4R)-4-[2-(3,5-dimethylanilino)-5,7-dihydropyrrolo[3,4-d]pyrimidin-6-yl]-2-methyl-piperidine-1-carbonyl]phenyl]methanesulfonamide]	> 1000 nM
Cc1cc(Nc2ncc3c(n2)CN([C@@H]2CCN(C(=O)c4ccnc(NS(C)(=O)=O)c4)[C@H](C)C2)C3)ccc1F [compound 207, N-[4-[(2R,4R)-4-[2-(4-fluoro-3-methyl-anilino)-5,7-dihydropyrrolo[3,4-d]pyrimidin-6-yl]-2-methyl-piperidine-1-carbonyl]-2-pyridyl]methanesulfonamide]	0.01 to 100 nM
CCS(=O)(=O)Nc1cc(C(=O)N2CC[C@@H](N3Cc4cnc(Nc5cc(C)cc(C)c5)nc4C3)C[C@H]2C)ccn1 [compound 210, N-[4-[(2R,4R)-4-[2-(3,5-dimethylanilino)-5,7-dihydropyrrolo[3,4-d]pyrimidin-6-yl]-2-methyl-piperidine-1-carbonyl]-2-pyridyl]ethanesulfonamide]	0.01 to 100 nM
C[C@@H]1C[C@H](N2Cc3cnc(Nc4cc(F)cc(Cl)c4)nc3C2)CCN1C(=O)c1ccnc(NS(C)(=O)=O)c1 [compound 213, N-[4-[(2R,4R)-4-[2-(3-chloro-5-fluoro-anilino)-5,7-dihydropyrrolo[3,4-d]pyrimidin-6-yl]-2-methyl-piperidine-1-carbonyl]-2-pyridyl]methanesulfonamide]	0.01 to 100 nM
C[C@@H]1C[C@@H](N2Cc3cnc(Nc4cc(F)cc(Cl)c4)nc3C2)CCN1C(=O)c1ccnc(NS(C)(=O)=O)c1 [compound 214, N-[4-[(2R,4S)-4-[2-(3-chloro-5-fluoro-anilino)-5,7-dihydropyrrolo[3,4-d]pyrimidin-6-yl]-2-methyl-piperidine-1-carbonyl]-2-pyridyl]methanesulfonamide]	100 to 500 nM
Cc1cc(Nc2ncc3c(n2)CN([C@@H]2CCN(C(=O)c4ccnc(NS(C)(=O)=O)c4)[C@H](C)C2)C3)ccc1C(F)(F)F [compound 215, N-[4-[(2R,4R)-2-methyl-4-[2-[3-methyl-4-(trifluoromethyl)anilino]-5,7-dihydropyrrolo[3,4-d]pyrimidin-6-yl]piperidine-1-carbonyl]-2-pyridyl]methanesulfonamide]	0.01 to 100 nM
Cc1cc(Nc2ncc3c(n2)CN([C@H]2CCN(C(=O)c4ccnc(NS(C)(=O)=O)c4)[C@H](C)C2)C3)ccc1C(F)(F)F [compound 216, N-[4-[(2R,4S)-2-methyl-4-[2-[3-methyl-4-(trifluoromethyl)anilino]-5,7-dihydropyrrolo[3,4-d]pyrimidin-6-yl]piperidine-1-carbonyl]-2-pyridyl]methanesulfonamide]	0.01 to 100 nM

Second part, the compound after the results:

IC50	SMILES
> 1000 nM	COc1cccc(Nc2ncc3c(n2)CN([C@H]2CCN(C(=O)c4ccnc(NS(C)(=O)=O)c4)[C@H](C)C2)C3)c1 [compound 193, N-[4-[(2R,4S)-4-[2-(3-methoxyanilino)-5,7-dihydropyrrolo[3,4-d]pyrimidin-6-yl]-2-methyl-piperidine-1-carbonyl]-2-pyridyl]methanesulfonamide]
> 1000 nM	Cc1cc(C)cc(Nc2ncc3c(n2)CN(C2(C)CCN(C(=O)c4cc5nn[nH]c5cc4F)CC2)C3)c1 [compound 194, [4-[2-(3,5-dimethylanilino)-5,7-dihydropyrrolo[3,4-d]pyrimidin-6-yl]-4-methyl-1-piperidyl]-(6-fluoro-1H-benzotriazol-5-yl)methanone]
0.01 to 100 nM	C[C@@H]1C[C@@H](N2Cc3cnc(Nc4ccc(S(F)(F)(F)(F)F)cc4)nc3C2)CCN1C(=O)c1cc2nn[nH]c2cc1F [compound 196, (6-fluoro-1H-benzotriazol-5-yl)-[(2R,4S)-2-methyl-4-[2-[4-(pentafluoro-λ^6-sulfanyl)anilino] -5,7-dihydropyrrolo[3,4-d]pyrimidin-6-yl]-1-piperidyl]methanone]
> 1000 nM	Cc1cc(C)cc(Nc2ncc3c(n2)CCN(C2CCN(C(=O)C4CCN(c5cc6nn[nH]c6cc5C)CC4)CC2)C3)c1 [compound 199, [4-[2-(3,5-dimethylanilino)-7,8-dihydro-5H-pyrido[4,3-d]pyrimidin-6-yl]-1-piperidyl]-[1-(6-methyl-1H-benzotriazol-5-yl)-4-piperidyl]methanone]
0.01 to 100 nM	COc1cc(Nc2ncc3c(n2)CN([C@@H]2CCN(C(=O)c4ccnc(NS(C)(=O)=O)c4)[C@H](C)C2)C3)cc(OC)c1 [compound 200, N-[4-[(2R,4R)-4-[2-(3,5-dimethoxyanilino)-5,7-dihydropyrrolo[3,4-d]pyrimidin-6-yl]-2-methyl-piperidine-1-carbonyl]-2-pyridyl]methanesulfonamide]
0.01 to 100 nM	CS(=O)(=O)Nc1cc(C(=O)N2CCC(N3Cc4cnc(Nc5ccc(C(F)(F)F)cc5)nc4C3)CC2)ccn1 [compound 201, N-[4-[4-[2-[4-(trifluoromethyl)anilino]-5,7-dihydropyrrolo[3,4-d]pyrimidin-6-yl]piperidine-1-carbonyl]-2-pyridyl]methanesulfonamide]
0.01 to 100 nM	Cc1cccc(Nc2ncc3c(n2)CN([C@@H]2CCN(C(=O)c4ccnc(NS(C)(=O)=O)c4)[C@H](C)C2)C3)c1 [compound 203, N-[4-[(2R,4R)-2-methyl-4-[2-(3-methylanilino)-5,7-dihydropyrrolo[3,4-d]pyrimidin-6-yl]piperidine-1-carbonyl]-2-pyridyl]methanesulfonamide]
0.01 to 100 nM	C[C@@H]1C[C@H](N2Cc3cnc(Nc4ccc(OC(F)(F)F)cc4)nc3C2)CCN1C(=O)c1ccnc(NS(C)(=O)=O)c1 [compound 205, N-[4-[(2R,4R)-2-methyl-4-[2-[4-(trifluoromethoxy)anilino]-5,7-dihydropyrrolo[3,4-d]pyrimidin-6-yl]piperidine-1-carbonyl]-2-pyridyl]methanesulfonamide]
0.01 to 100 nM	Cc1cc(C)cc(Nc2ncc3c(n2)CN([C@@H]2CCN(C(=O)c4cc(NS(C)(=O)=O)ncc4F)[C@H](C)C2)C3)c1 [compound 208, N-[4-[(2R,4R)-4-[2-(3,5-dimethylanilino)-5,7-dihydropyrrolo[3,4-d]pyrimidin-6-yl]-2-methyl-piperidine-1-carbonyl]-5-fluoro-2-pyridyl]methanesulfonamide]
500 to 1000 nM	CC(=O)Nc1cc(C(=O)N2CC[C@@H](N3Cc4cnc(Nc5cc(C)cc(C)c5)nc4C3)C[C@H]2C)ccn1 [compound 209, N-[4-[(2R,4R)-4-[2-(3,5-dimethylanilino)-5,7-dihydropyrrolo[3,4-d]pyrimidin-6-yl]-2-methyl-piperidine-1-carbonyl]-2-pyridyl]acetamide]
> 1000 nM	Cc1cc(C)cc(Nc2ncc3c(n2)CN([C@@H]2CCN(C(=O)c4cncc(NS(C)(=O)=O)c4)[C@H](C)C2)C3)c1 [compound 211, N-[5-[(2R,4R)-4-[2-(3,5-dimethylanilino)-5,7-dihydropyrrolo[3,4-d]pyrimidin-6-yl]-2-methyl-piperidine-1-carbonyl]-3-pyridyl]methanesulfonamide]
100 to 500 nM	Cc1cc(C)cc(Nc2ncc3c(n2)CN([C@@H]2CCN(C(=O)c4ccnc(NS(=O)(=O)C(F)(F)F)c4)[C@H](C)C2)C3)c1 [compound 212, N-[4-[(2R,4R)-4-[2-(3,5-dimethylanilino)-5,7-dihydropyrrolo[3,4-d]pyrimidin-6-yl]-2-methyl-piperidine-1-carbonyl]-2-pyridyl]-1,1,1-trifluoro-methanesulfonamide]
0.01 to 100 nM	COc1cc(Nc2ncc3c(n2)CN([C@@H]2CCN(C(=O)c4ccnc(NS(C)(=O)=O)c4)[C@H](C)C2)C3)ccc1Cl [compound 217, N-[4-[(2R,4R)-4-[2-(4-chloro-3-methoxy-anilino)-5,7-dihydropyrrolo[3,4-d]pyrimidin-6-yl]-2-methyl-piperidine-1-carbonyl]-2-pyridyl]methanesulfonamide]
